Patent publication US9290529B2, “Carbonic anhydrase inhibitors and method of their production” (USTAV ORGANICKE CHEMIE A BIOCHEMIE AKADEMIE VED CESKE …, priority 2011, dated 2016)

Tests used:
CCRF-CEM = assay: MTT cytotoxicity assay, CCRF-CEM; format: cell-based, human; settings: 72 h
Description: (§1) One of the parameters used as the basis for colorimetric assays is the metabolic activity of viable cells. For example, a microtiter assay which uses the tetrazolium salt MTT is now widely used to quantitate cell proliferation and cytotoxicity (Hájduch et al., Cytotechnology, 19, 1996, 243-245). For instance, this assay is used in drug screening programs and in chemosensitivity testing. Because tetrazolium salts are cleaved only by metabolically active cells, these assays exclusively detect viable cells. In the case of the MTT assay, yellow soluble tetrazolium salt is reduced to a coloured water-insoluble formazan salt. After it is solubilized, the formazan formed can easily and rapidly be quantified in a conventional ELISA plate reader at 570 nm (maximum absorbancy). The quantity of reduced formazan corresponds to the number of vital cells in the culture.
(§2) All cells were purchased from the […] (ATCC), unless otherwise indicated: the CEM line are highly chemosensitive T-lymphoblastic leukemia cells, K562 cells were derived from patient with […] with bcr-abl translocation, A549 line is lung adenocarcinoma, HCT116 is colorectal tumor cell line and its p53 gene knock-down counterpart (HCT116p53−) is a model of human cancers with p53 mutation frequently associated with poor prognosis. The daunorubicin resistant subline of CEM cells (CEM-DNR bulk) and paclitaxel resistant subline K562-tax were selected in our laboratory by the cultivation of maternal cell lines in increasing concentrations of daunorubicine or paclitaxel, respectively (Noskova et al., Neoplasma 49, 2002, 418). The CEM-DNR bulk cells overexpress MRP-1 protein, while K562-tax cells overexpress P-glycoprotein, both proteins belong to family of ABC transporters and are involved in primary and/or acquired multidrug resistance phenomenon (Noskova et al., Neoplasma 49, 2002, 418). The cells were maintained in Nunc/Corning 80 cm^2 plastic tissue culture flasks and cultured in cell culture medium (DMEM/RPMI 1640 with 5 g/l glucose, 2 mM glutamine, 100 U/ml penicillin, 100 μg/ml streptomycin, 10% fetal calf serum, and NaHCO3).
(§3) This assay was performed according to Hajduch et al., Anti-Cancer Drugs 10, 1997, 1007. Cell suspensions were prepared and diluted according to the particular cell type and the expected target cell density (2 500-30 000 cells/well based on cell growth characteristics). Cells were added by pipette (80 μl) into 96-well microtiter plates. Inoculates were allowed a pre-incubation period of 24 h at 37° C. and 5% CO2 for stabilization. Four-fold dilutions, in 20-μl aliquots, of the intended test concentration were added to the microtiter plate wells at time zero. All test compound concentrations were examined in duplicate. Incubation of the cells with the test compounds lasted for 72 h at 37° C., in a 5% CO2 atmosphere at 100% humidity. At the end of the incubation period, the cells were assayed using MTT. Aliquots (10 μl) of the MTT stock solution were pipetted into each well and incubated for a further 1-4 h. After this incubation period the formazan produced was dissolved by the addition of 100 μl/well of 10% aq SDS (pH=5.5), followed by a further incubation at 37° C. overnight. The optical density (OD) was measured at 540 nm with a Labsystem iEMS Reader MF. Tumor cell survival (TCS) was calculated using the following equation: TCS=(ODdrug-exposed well/mean ODcontrol wells)×100%. The TCS50 value, the drug concentration lethal to 50% of the tumor cells, was calculated from appropriate dose-response curves.

CEM-DNR = assay: MTT cytotoxicity assay, CEM-DNR; format: cell-based, human; settings: 72 h
Description: as §1, §2, §3

A549 = assay: MTT cytotoxicity assay, A549; format: cell-based, human; settings: 72 h
Description: as §1, §2, §3

K562-TAX = assay: MTT cytotoxicity assay, K562-TAX; format: cell-based, human; settings: 72 h
Description: as §1, §2, §3

HCT116 = assay: MTT cytotoxicity assay, HCT116; format: cell-based, human; settings: 72 h
Description: as §1, §2, §3

HCT116p53−/− = assay: MTT cytotoxicity assay, HCT116p53−/−; format: cell-based, human; settings: 72 h
Description: as §1, §2, §3

BJ = assay: MTT cytotoxicity assay, BJ; format: cell-based; settings: 72 h
Description: as §1, §3

MRC-5 = assay: MTT cytotoxicity assay, MRC-5; format: cell-based; settings: MRC-5, MTT, 72 h
Description: as §1, §3

CCRF-CEM cells = assay: Flow cytometric measurement of intracellular pH (pHi), CA IX negative CCRF-CEM; format: cell-based, human; settings: carboranes at 1 μM, 24 hour incubation, control 7.362
Procedure: The effect of carborane CAIX (carbonic anhydrase IX) inhibitors was evaluated on colorectal cancer cell line HCT116 expressing CAIX enzyme versus CA IX negative cell line of T-lymphoblastic leukemia CCRF-CEM. Acetazolamide, a known inhibitor of CAIX, was used as a standard. HCT116/CCRF-CEM cells were cultivated in McCoy/RPMI Media supplemented with 10% FCS and antibiotics and seeded at high density ([…] per 3.5 cm dish) to induce pericellular hypoxia and thus stimulate CA IX expression. Measurement of pHi was assessed as described in Cianchi et al. [Cianchi F., et al. Selective inhibition of carbonic anhydrase IX decreases cell proliferation and induces […] apoptosis in human cancer cells. The Journal of Pharmacology and Experimental Therapeutics, 2010, Vol. 334, No. 3, 710-719].
[…] The pHi was measured by flow cytometry in cell cultures pretreated with 10 μM of pH sensitive probe carboxyseminaphtorhoda-fluor-1-acetoxymethyl ester (SNARF, Invitrogen, CA) for 15 min at 37° C. After incubation, the cells were washed twice with PBS. Because the addition of bicarbonate can affect pHi, all incubation and cell washes were performed in bicarbonate-free buffer. SNARF was excited at 488 nm and emitted at 580 and 640 nm. The ratio of the emission wavelengths at 640/580 nm was then used to estimate the pHi from a calibration curve. The calibration curve was prepared by nigericin clamp technique. In this method, after the SNARF labeling of untreated cells, aliquots of cell suspensions were re-suspended in a high potassium containing buffer at specific pH (usually 6.8, 7.0, 7.2, 7.4, 7.6 and 7.8). The cell suspensions were then clamped at a specific pH value by the addition of 0.03 μM nigericin (Sigma-Aldrich). Nigericin is a ionophore that allows the exchange of H for K ions, thus abolishing the pH gradient across the cell membrane. When the internal and external K concentrations are approximately equal, the pH rapidly equilibrates to the pH of the bathing solution. A total of 20,000 events were acquired on a FACS ARIA II flow cytometer (Becton. Dickinson) for further analysis.
The fluorescent ratio values (640/580 nm) calculated for each pH point were further used to construct calibration curve in Prism software (GraphPad Software, Inc., San Diego, Calif.), from which the pHi values in treated cells were determined (Table 3).

Substance	IC50 (CCRF-CEM)	IC50 (CEM-DNR)	IC50 (A549)	IC50 (K562-TAX)	IC50 (HCT116)	IC50 (HCT116p53−/−)	IC50 (BJ)	IC50 (MRC-5)	pHi (CCRF-CEM cells)
8-butyloxysulfamide-3,3′-commo-bis(decahydro-1,2-dicarba-3-cobalta(III)-closo-dodekabor)ate (1-) [CB-16]	89.9 ± 6 µM	95.1 ± 7.9 µM	≥ 100 µM	95.8 ± 4.4 µM	84.8 ± 3 µM	78.4 ± 3.9 µM	≥ 100 µM	≥ 100 µM	7.442
8-diethyleneoxysulfamide-3,3′-commo-bis(decahydro-1,2-dicarba-3-cobalta(III)-closo-dodekabor)ate (1-) [CB-17]	95.1 ± 5 µM	≥ 100 µM	≥ 100 µM	≥ 100 µM	≥ 100 µM	≥ 100 µM	≥ 100 µM	≥ 100 µM	7.412
8-ethylaminomethylsulfamide-8″-methoxy-3,3′-commo-bis(decahydro-1,2-dicarba-3-cobalta(III)-closo-dodecabor)ate (1-) [CB-15]	17.3 ± 1.2 µM	47.9 ± 7.6 µM	33.7 ± 7.7 µM	16.6 ± 1.2 µM	16.6 ± 0.2 µM	17.6 ± 0.9 µM	65.2 ± 4.4 µM	27 ± 4.8 µM	7.472
8-methylensulfamide-8″-methoxy-3,3′-commo-bis(1,2-dicarba-3-cobalta(III)-closo-dodecabor)ate (1-) [CB-4]	61.7 ± 17.8 µM	74.5 ± 2.8 µM	95.5 ± 3.7 µM	55.2 ± 4.7 µM	69.2 ± 3 µM	71.9 ± 3.4 µM	76.4 ± 3.3 µM	77.9 ± 1 µM	7.385
8-propylenesulfamide-7-phenyl-(7,8-nido-dicarbaundecabor)ate (1-) [CB-13]	62 ± 3 µM	68 ± 1.6 µM	86.5 ± 4.6 µM	64.2 ± 4.5 µM	55.5 ± 1.8 µM	61.3 ± 4.9 µM	88.4 ± 6.1 µM	75.6 ± 1.5 µM	7.452
9-sulfamide-9′-amine-2,2′-commo-bis(1,7,9-trikarba-2-ferra(II)-kloso-dodekabor)ane [CB-12]	≥ 100 µM	≥ 100 µM	≥ 100 µM	≥ 100 µM	≥ 100 µM	≥ 100 µM	≥ 100 µM	≥ 100 µM	7.395
10-sulfamide-9′-amine-2,2′-commo-(1,7,10-tricarba-1′,7′,9′-tricarba-2-ferra (II)-closo-dodekabor)ane [CB-10]	79.5 ± 22.7 µM	≥ 100 µM	≥ 100 µM	73.6 ± 11.1 µM	96.4 ± 4.5 µM		≥ 100 µM	≥ 100 µM	7.328
Di(methylenesulfamide)-1,7-dicarba-closo-dodecaborane [CB-20]	84.5 ± 5.3 µM		≥ 100 µM	96.3 ± 5.8 µM	99.6 ± 1.1 µM	≥ 100 µM	≥ 100 µM	≥ 100 µM	7.422
